In patent US20230029066A1, “CRYSTAL FORMS OF FUSED RING COMPOUND, AND COMPOSITION THEREOF, PREPARATION METHOD THEREFOR AND APPLICATION THEREOF” (HANGZHOU YUSHENG MEDICAL TECHNOLOGY CO. LTD, priority 2019, published 2023):
Values after ≈ are worked out from the molar mass of the structure shown. “Also recorded” adds a separate entry of the source. Where two headings read alike, the source gives them in different places.

Tests used:
Type in all cases: physicochemical
[1] = Effect of crystal form on stability, high humidity test for 5 days (XRD); conditions: room temperature, unsealed, desiccator with saturated potassium nitrate
Protocol: Evaluation on effect of crystal form on stability—high humidity test for 5 days
(§1) The amorphous form obtained in Example 11, crystal form IV obtained in Example 3, crystal form I obtained in Example 6, and crystal form II obtained in Example 8 were each taken 30 mg, in triplicate, put into a penicillin bottle, which is transferred, without being sealed, at room temperature into a desiccator with saturated potassium nitrate at the bottom, and the samples were taken after 5 days and tested by XRD.

[2] = Effect of crystal form on stability, high temperature test for 5 days (XRD); conditions: 60° C., unsealed
Protocol: Evaluation on effect of crystal form on stability—high temperature test for 5 days
as §1, with “to QG 2003 ba incubation and drying oven, of which the” for “at room”, “was adjusted to 60° C. The” for “into a desiccator with saturated potassium nitrate at the bottom, and the”

[3] = Solubility of crystal forms in different environments
Text: The solubilities (μg/mL) of crystal form I in different environments are shown in […]

[4] = Stability in solution within 24 hours
[5] = Accelerated stability test for 30 days (XRD); conditions: 40° C., sealed bags
Protocol: Evaluation for accelerated stability of crystal forms I, II and IV
Crystal form IV obtained in Example 3, crystal form I obtained in Example 6, and crystal form II obtained in Example 8 were each taken 30 mg, in triplicate, put into sealed bags, which is transferred into BPN-80CH CO2 incubator, of which the temperature was set at 40° C. The samples were taken after 30 days and tested by XRD.

[6] = Simulated fasting intestinal fluid (FaSSIF), R.T. (25° C.)
[7] = Simulated gastric fluid (SGF), 37° C.
[8] = Simulated gastric fluid (SGF), R.T. (25° C.)
[9] = Simulated gastric fluid (SGF), Ultrasonic
[10] = Simulated postprandial intestinal fluid (FeSSIF), 37° C.
[11] = Simulated postprandial intestinal fluid (FeSSIF), R.T. (25° C.)
[12] = Simulated postprandial intestinal fluid (FeSSIF), Ultrasonic
[13] = pH 1.2 hydrochloric acid solution, 37° C.
[14] = pH 1.2 hydrochloric acid solution, R.T. (25° C.)
[15] = pH 1.2 hydrochloric acid solution, Ultrasonic
[16] = pH 4.5 acetic acid-sodium acetate solution, 75° C.
[17] = pH 4.5 acetic acid-sodium acetate solution, R.T. (25° C.)
[18] = Simulated fasting intestinal fluid (FaSSIF)
[19] = Simulated postprandial intestinal fluid (FeSSIF)
[20] = pH 1.2 hydrochloric acid solution
[21] = pH 4.5 acetic acid-sodium acetate solution

Structure (SMILES)	solid-form stability, change of XRD after high humidity test [1]	solid-form stability, change of XRD after high temperature test [2]	solubility [3, 6] [µg/mL]	solubility [3, 7] [µg/mL]	solubility [3, 8] [µg/mL]	solubility [3, 9] [µg/mL]	solubility [3, 10] [µg/mL]	solubility [3, 11] [µg/mL]	solubility [3, 12] [µg/mL]	solubility [3, 13] [µg/mL]	solubility [3, 14] [µg/mL]	solubility [3, 15] [µg/mL]	solubility [3, 16] [µg/mL]	solubility [3, 17] [µg/mL]	Stability [4, 18]	Stability ([4]; Simulated gastric fluid (SGF))	Stability [4, 19]	Stability ([4]; Water)	Stability [4, 20]	solid-form stability, change of XRD after accelerated stability test [5]	other results
COc1ncc(-c2ccc3ncc(C#N)c(N4CCOC[C@H]4C)c3c2)cc1NS(C)(=O)=O [amorphous form, (R)-N-(5-(3-cyano-4-(3-methylmorpholinyl)quinolin-6-yl)-2-methoxypyridin-3-yl)methanesulfonamide, reference compound]	obvious crystal transformation; also recorded: significant crystal transformation	obvious crystal transformation; also recorded: significant crystal transformation																			
COc1ncc(-c2ccc3ncc(C#N)c(N4CCOC[C@H]4C)c3c2)cc1NS(C)(=O)=O [crystal form I, (R)-N-(5-(3-cyano-4-(3-methylmorpholinyl)quinolin-6-yl)-2-methoxypyridin-3-yl)methanesulfonamide]	barely no change	barely no change	2.07 (≈ 4.56 µM)	167.38 (≈ 369 µM)	99.81 (≈ 220 µM)	119.65 (≈ 264 µM)	11.35 (≈ 25 µM)	8.09 (≈ 17.8 µM)	9.46 (≈ 20.9 µM)	404.30 (≈ 891 µM)	275.20 (≈ 607 µM)	294.60 (≈ 650 µM)	1.55 (≈ 3.42 µM)	1.29 (≈ 2.84 µM)	Stable within	Stable within	Stable within	Stable within	Stable within	barely no change; also recorded: stable	solubility ([3]; pH 1.2 hydrochloric acid solution, 75 °C, pH 1.2, simulated gastric fluid, thermodynamic from solid, pH 1.2 hydrochloric acid solution, 75° C., read-out: solubility): 868 µg/mL (≈ 1910 µM); solubility ([3]; pH 4.5 acetic acid-sodium acetate solution, 37 °C, pH 4.5, aqueous buffer, thermodynamic from solid, pH 4.5 acetic acid-sodium acetate solution, 37° C., read-out: solubility): 1.67 µg/mL (≈ 3.68 µM); solubility ([3]; pH 4.5 acetic acid-sodium acetate solution, pH 4.5, aqueous buffer, thermodynamic from solid, pH 4.5 acetic acid-sodium acetate solution, Ultrasonic, read-out: solubility): 1.56 µg/mL (≈ 3.44 µM); solubility ([3]; pH 6.8 PBS solution, 25 °C, pH 6.8, aqueous buffer, thermodynamic from solid, pH 6.8 PBS solution, R.T. (25° C.), read-out: solubility): 3.58 µg/mL (≈ 7.89 µM); solubility ([3]; pH 6.8 PBS solution, 37 °C, pH 6.8, aqueous buffer, thermodynamic from solid, pH 6.8 PBS solution, 37° C., read-out: solubility): 1.51 µg/mL (≈ 3.33 µM); solubility ([3]; pH 6.8 PBS solution, 75 °C, pH 6.8, aqueous buffer, thermodynamic from solid, pH 6.8 PBS solution, 75° C., read-out: solubility): 1.41 µg/mL (≈ 3.11 µM); solubility ([3]; pH 6.8 PBS solution, pH 6.8, aqueous buffer, thermodynamic from solid, pH 6.8 PBS solution, Ultrasonic, read-out: solubility): 2.79 µg/mL (≈ 6.15 µM); solubility ([3]; simulated fasting intestinal fluid (FaSSIF), 37 °C, fassif, thermodynamic from solid, Simulated fasting intestinal fluid (FaSSIF), 37° C., read-out: solubility): 2.87 µg/mL (≈ 6.33 µM); solubility ([3]; simulated fasting intestinal fluid (FaSSIF), 75 °C, fassif, thermodynamic from solid, Simulated fasting intestinal fluid (FaSSIF), 75° C., read-out: solubility): 8.64 µg/mL (≈ 19.1 µM); solubility ([3]; simulated fasting intestinal fluid (FaSSIF), fassif, thermodynamic from solid, Simulated fasting intestinal fluid (FaSSIF), Ultrasonic, read-out: solubility): 4.76 µg/mL (≈ 10.5 µM); solubility ([3]; simulated gastric fluid (SGF), 75 °C, simulated gastric fluid, thermodynamic from solid, Simulated gastric fluid (SGF), 75° C., read-out: solubility): 432 µg/mL (≈ 952 µM); solubility ([3]; simulated postprandial intestinal fluid (FeSSIF), 75 °C, fessif, thermodynamic from solid, Simulated postprandial intestinal fluid (FeSSIF), 75° C., read-out: solubility): 18.9 µg/mL (≈ 41.7 µM); solubility ([3]; water, 25 °C, water, thermodynamic from solid, Water, R.T. (25° C.), read-out: solubility): 3.84 µg/mL (≈ 8.47 µM); solubility ([3]; water, 37 °C, water, thermodynamic from solid, Water, 37° C., read-out: solubility): 3.87 µg/mL (≈ 8.53 µM); solubility ([3]; water, 75 °C, water, thermodynamic from solid, Water, 75° C., read-out: solubility): 2.24 µg/mL (≈ 4.94 µM); solubility ([3]; water, thermodynamic from solid, Water, Ultrasonic, read-out: solubility): 4.63 µg/mL (≈ 10.2 µM); Stability [4, 21]: Stable within; Stability ([4]; pH 6.8 PBS solution): Stable within; solid-form stability, change of XRD after high humidity test ([1]; listed as Crystal form I): stable; solid-form stability, change of XRD after high temperature test ([2]; listed as Crystal form I): stable
COc1ncc(-c2ccc3ncc(C#N)c(N4CCOC[C@H]4C)c3c2)cc1NS(C)(=O)=O [crystal form II, (R)-N-(5-(3-cyano-4-(3-methylmorpholinyl)quinolin-6-yl)-2-methoxypyridin-3-yl)methanesulfonamide]	barely no change; also recorded: stable	barely no change; also recorded: stable																		barely no change; also recorded: stable	
COc1ncc(-c2ccc3ncc(C#N)c(N4CCOC[C@H]4C)c3c2)cc1NS(C)(=O)=O [crystal form IV, (R)-N-(5-(3-cyano-4-(3-methylmorpholinyl)quinolin-6-yl)-2-methoxypyridin-3-yl)methanesulfonamide]	barely no change; also recorded: stable	barely no change; also recorded: stable	6.05 (≈ 13.3 µM)	655.37 (≈ 1450 µM)	533.36 (≈ 1180 µM)	570.49 (≈ 1260 µM)	26.02 (≈ 57.4 µM)	31.70 (≈ 69.9 µM)	29.70 (≈ 65.5 µM)	1431.40 (≈ 3160 µM)	1283.50 (≈ 2830 µM)	1289.40 (≈ 2840 µM)	3.45 (≈ 7.61 µM)	2.75 (≈ 6.06 µM)	Stable within	Stable within	Stable within	Stable within	Stable within	barely no change; also recorded: stable	solubility ([3]; Simulated fasting intestinal fluid (FaSSIF), 37° C.): 4.70 µg/mL (≈ 10.4 µM); solubility ([3]; Simulated fasting intestinal fluid (FaSSIF), 75° C.): 5.12 µg/mL (≈ 11.3 µM); solubility ([3]; Simulated fasting intestinal fluid (FaSSIF), Ultrasonic): 5.43 µg/mL (≈ 12 µM); solubility ([3]; Simulated gastric fluid (SGF), 75° C.): 766.58 µg/mL (≈ 1690 µM); solubility ([3]; Simulated postprandial intestinal fluid (FeSSIF), 75° C.): 28.48 µg/mL (≈ 62.8 µM); solubility ([3]; Water, 37° C.): 2.39 µg/mL (≈ 5.27 µM); solubility ([3]; Water, 75° C.): 2.98 µg/mL (≈ 6.57 µM); solubility ([3]; Water, R.T. (25° C.)): 2.68 µg/mL (≈ 5.91 µM); solubility ([3]; Water, Ultrasonic): 2.96 µg/mL (≈ 6.53 µM); solubility ([3]; pH 1.2 hydrochloric acid solution, 75° C.): 1516.50 µg/mL (≈ 3340 µM); solubility ([3]; pH 4.5 acetic acid-sodium acetate solution, 37° C.): 3.04 µg/mL (≈ 6.7 µM); solubility ([3]; pH 4.5 acetic acid-sodium acetate solution, Ultrasonic): 3.04 µg/mL (≈ 6.7 µM); solubility ([3]; pH 6.8 PBS solution, 37° C.): 2.18 µg/mL (≈ 4.81 µM); solubility ([3]; pH 6.8 PBS solution, 75° C.): 2.62 µg/mL (≈ 5.78 µM); solubility ([3]; pH 6.8 PBS solution, R.T. (25° C.)): 2.12 µg/mL (≈ 4.67 µM); solubility ([3]; pH 6.8 PBS solution, Ultrasonic): 2.48 µg/mL (≈ 5.47 µM); Stability [4, 21]: Stable within; Stability ([4]; pH 6.8 PBS solution): Stable within
